System: zinnia (Zinnia peruviana var. “Giant Dahlia”) seedlings
Experiment: Herbicidal effect (percent control) on zinnia seedlings
Format: in vivo
Conditions: Enz 0 mg, 2 mL dose
Protocol: In one example, combinations of cellulase and hemicellulase from Trichoderma viride (i.e. depolymerase, labeled “Enz” in Table 1), bovine serum albumin (i.e. non-depolymerase protein, labeled “BSA” in Table 1), and glyphosate (labeled “Gly” in Table 1) are blended and applied in 2 mL doses directly to zinnia (Zinnia peruviana var. “Giant Dahlia”) seedlings at the first true leaf stage. Treatments ranged from 0-1.6 mg of depolymerase that consisted of cellulase from Trichoderma viride and hemicellulase from Aspergillus niger in a ratio of 10.5:6, respectively; non-depolymerase BSA from 0-24 mg; and glyphosate from 0-0.3 mg. […] Herbicidal effect was assessed 12 days after treatment (DAT). Percent control ratings ascertained the extent of control, i.e. reduction in growth, and were scored on a basis of 0 to 100 where 100 represents complete killing of the plants and 0 represents no reduction in growth as compared to the untreated control.

Compound	Percent Control 12 DAT (Gly 0.003 mg, BSA 0 mg) [%]	Percent Control 12 DAT (Gly 0.03 mg, BSA 0 mg) [%]	Percent Control 12 DAT (Gly 0.3 mg, BSA 0 mg) [%]	Percent Control 12 DAT (Gly 0 mg, BSA 0.24 mg) [%]	Percent Control 12 DAT (Gly 0 mg, BSA 2.4 mg) [%]	Percent Control 12 DAT (Gly 0 mg, BSA 24 mg) [%]
O=C(O)CNCP(=O)(O)O [Gly, glyphosate]	0	28	28			
bovine serum albumin [BSA]				3	7	13

Reference: patent publication US20160353747A1, “COMPOSITIONS AND METHODS FOR ACHIEVING A BIOLOGICAL EFFECT IN TARGET VEGETATION” (Ento Bio LLC, priority 2015, published 2016)
